Values of other authors as cited in patent publication US20130197188A1 (priority 2010, published 2013).

How the values were obtained:
[1] = system: patients with chronic congestive heart failure; conditions: 15 ng/kg/min, 10-hour infusion; loss of action during infusion
[2] = system: patients with moderate asthma affliction; conditions: brief infusion; healthy and diseased subjects
[3] = system: patients with acute decompensated heart failure (ADHF)

Substance: urodilatin
- central venous pressure (CVP) [1]: increases slightly already after 5 hours of infusion
- urine flow [1]: loss of action after 8 hours of infusion
- effect on bronchoconstriction [2]: biologically relevant effectiveness
- changes of the baseline in pulmonary capillary wedge pressure (PCWP) ([3]; 15+30 ng/kg/min, compared with the placebo group, FIG. 4A): significant reductions
- changes of the cardiac index (CI) ([3]; 15 and 30 ng/kg/min, FIG. 4C): significant increase
- persistence of the effect on PCWP and CI (rebound) ([3]; during infusion, slight increase of PCWP and partial drop of CI): slightly reversed after 6 to 8 hours
- symptoms, morbidity and mortality ([3]; for all doses): significantly improved
- therapeutic window (dose) ([3]; intermediate dose applied): about 15 ng/kg/min
